# According to US20110008302A1, “Compositions and methods for immortalizing cells and screening for anti-cancer agents” (priority 2007, published 2011):
# Tests used:
# Ndy1 = assay: siRNA knock down in MEFs (Western blot, real time PCR of p16Ink4a, p19Arf, Ezh2, miR-101); type: cell-based, mouse; details: passage 3 MEFs, knock down of the short form of Ndy1
# Procedure: At a time point four days after transfection cells were analyzed by Western blotting and total mRNA was collected and analyzed by real-time PCR with primers specific for p16^Ink4a and p19^Arf and primers specific for the long and short forms of Ndy1. (n=3)*p<0.05
# MEFs overexpressing Ndy1 or Ndy2 and MEFs in which Ndy1 was knocked down with siRNA (1433-[…]-1454, SEQ ID NO: 1), were monitored for senescence by light microscopy and β-galactosidase staining and by cell counting at each passage. Transfection of siRNA was carried out using Lipofectamine 2000 (Invitrogen; Carlsbad, Calif.). Knockdown of Ndy1 was confirmed by Western blotting and real time RTPCR.
# For siRNA. MEFs transfected with Ndy1 (1433-[…]-1454; SEQ ID NO: 51) or control siRNA (Dharmacon) were plated at 10^5 cells per 6 cm dish and 3-4 days later were harvested and analyzed (Pfau, R., et al. (2008) Proc Natl Acad Sci USA 105, 1907-12, incorporated herein by reference in its entirety). MEFs were transfected with the help of Lipofectamine 2000 (Invitrogen). To specifically knock down the short form of Ndy1 the following siRNA were used: 5′-[…]-′3 (SEQ ID NO: 52) which specifically targets the exon1 of the v2 isoform of Ndy1 (NM_013910). siRNAs for Ezh2 (a mix of two siRNAs form Applied Biosystems, #AM16708 siID #157427 and #157426) and Bmi-1 (Santa Cruz Biotechnologies, # sc-29815) were used in a final concentration of 80 nM.
# MEFs [1] = assay: Oxidant/antioxidant treatment of MEFs, Ezh2 Western blot; type: cell-based, mouse; details: NAC 5 mM, Trolox 1 mM, H2O2 0.5 or 1 mM
# Procedure: MEFs were treated with NAC (5 mM), Trolox (1 mM) or H2O2 (0.5 or 1 mM). Nuclear extracts were probed with antibodies specific for Ezh2 and for CREB, levels of which served as loading control.
# (§1) TROLOX ((±)-6-Hydroxy-2,5,7,8-tetramethylchromane-2-carboxylic acid, (Sigma, catalog number 238813), NAC (N-Acetyl-L-cysteine, Sigma, catalog number A9165), H2O2 (Sigma, catalog number H-1009) and PD173074 (N-[2-[[4-(Diethylamino)butyl]amino]-6-(3,5-dimethoxyphenyl)pyrido[2,3-d]pyrimidin-7-yl]-N′-(1,1-dimethylethyl) urea, FGFR-1/3 inhibitor, TOCRIS Bioscience, catalog number 3044) were added directly in the culture at the indicated concentrations.
# WIDR cells = assay: PD173074 treatment of WIDR cells (Western blot, real time RT-PCR); type: cell-based, human
# Procedure: (§2) WIDR cell were treated with 0.5 μM PD173074 or carrier for 24 hours. (upper) Nuclear and cytoplasmic extracts were probed with antibodies specific for each of Ndy1, Ezh2 and phosphoERK antibodies. CREB and ERK levels served as loading controls. (lower) miR-101 levels were measured with real time RT-PCR; U6 small nuclear RNA levels were used as internal control. Data are expressed as mean±SD.
# WIDR cells were transduced with an HA.Ndy1 overexpression construct or the empty vector (EV), and were subsequently treated with 0.5 μM PD173074 or carrier for 24 hours. (upper) Nuclear extracts were probed with antibodies specific for each of with HA-tag (exogenous Ndy1), Ndy1 (both endogenous and exogenous Ndy1) and Ezh2. CREB levels served as loading controls. (lower) miR-101 levels were measured with real time RT-PCR; U6 small nuclear RNA levels were used as internal controls. Data are expressed as mean±SD.
# as §1
# (§3) As a next step, FGF signaling was examined to determine importance for Ezh2 upregulation by Ndy1 in these cells. To address this issue, TCCSUP or WIDR cells, two of the above five cell lines, were treated with PD173074, an inhibitor of both FGFR1 and both FGFR3.
# (§4) To examine if ectopic expression of Ndy1 reverses the effects of PD173074, namely miR-101 upregulation and Ezh2 downregulation, TCCSUP or WIDR cells were transduced with a pBabe-based retroviral Ndy1 overexpression construct. Cells transduced with the empty pBabe vector were used as control. The engineered cells were subsequently treated with PD173074. Nuclear lysates from these cells were probed with antibodies specific for each of HA-tag (exogenous Ndy1), Ndy1 (both exogenous and endogenous), Ezh2, and CREB. RNA isolated from the same cells was used to measure miR-101 levels with real time RT-PCR.
# TCCSUP cells = assay: PD173074 treatment of TCCSUP cells (Western blot, real time RT-PCR); type: cell-based, human
# Procedure: as §2, with “TCCSUP cells” for “WIDR cell”, “phosphoERK.” for “phosphoERK antibodies.”
# TCCSUP cells were transduced with an HA.Ndy1 overexpression construct or with the empty vector (EV), and were subsequently treated with 0.5 μM PD173074 or carrier for 24 hours. (upper) Nuclear extracts were probed with antibodies specific for each of HA-tag (exogenous Ndy1), Ndy1 (both endogenous and exogenous Ndy1) and Ezh2. CREB levels served as loading control. (lower) miR-101 levels were measured with real time RT-PCR; U6 small nuclear RNA levels were used as internal control. Data are expressed as mean±SD.
# as §1, §3, §4
# MEFs [2] = assay: Stimulation of serum-starved MEFs with growth factors or serum (Ezh2, Ndy1, miR-101 levels); type: cell-based, mouse; details: serum-starved MEFs, 24 hours after stimulation; for Ezh2 expression: 20 ng/ml (serum 10%)
# Procedure: MEFs were transfected with control siRNA and stimulated with serum (10%) for 1, 4, 12 and 18 hours. (upper) Nuclear extracts were probed with antibody specific for Ezh2 and for CREB, levels of which served as loading control. (lower) Ndy1 and Ezh2 mRNA levels were measured with real time RT-PCR; GAPDH mRNA levels were used as internal control. Data are expressed as mean±SD.
# Serum starved MEFs were stimulated with each of FGF-2 (20 ng/ml), IGF-1 (20 ng/ml), PDGF (20 ng/ml), serum (10%), VEGF (20 ng/ml), EGF (20 ng/ml) or TNFα (50 ng/ml). Nuclear extracts were probed with antibody specific for Ezh2 and for CREB, levels of which served as loading control.
# Data are expressed as mean±SD.
# MEFs transfected with control siRNA were stimulated with FGF-2 for 1, 4, 12 or 18 hours. (upper) Nuclear extracts were probed with antibody specific for Ezh2. CREB levels served as loading control. (middle) Ndy1 and Ezh2 mRNA were measured with real time RT-PCR; GAPDH mRNA levels were used as internal control. Data are expressed as mean±SD. (lower) miR-101 levels were measured with real time RT-PCR; U6 small nuclear RNA levels were used as internal control. Data are expressed as mean±SD.
# For stimulation with FGF-2 (Cell signalling, catalog number 8910), IGF-1 (R&D Systems, catalog number 791-MG), PDGF (Cell signalling, catalog number 9909), VEGF (R&D systems, catalog number 493-MV), EGF (R&D systems, catalog number 236-EG), TNFα (Cell Signalling, catalog number 2169), cells were serum starved for 16 hours and growth factors were added at a final concentration of 20 ng/ml each, for 24 hours.
# To identify a pathway regulating Ezh2 expression via the Ndy1/miR-101 axis, serum-starved MEFs were stimulated with FGF-2, IGF-1, PDGF, EGF, VEGF, TNFα or serum and were examined for expression of Ezh2, Ndy1 and miR-101 before and 24 hours after stimulation. […] This was confirmed with analyses in which FGF-2 was used to stimulate serum-starved MEFs transfected with a control siRNA or siRNA for Ndy1 (FIG. 36).
# [3] = WIDR cells overexpressing HA.Ndy1, 0.5 μM, 24 hours
# [4] = TCCSUP cells overexpressing HA.Ndy1, 0.5 μM, 24 hours
molecule,measurement,setting,value
5′-CCGAGGACGACGACUAUGAUU-′3 [Ndy1 short form siRNA],p16Ink4a,Ndy1,did not upregulate significantly
same,p19Arf,Ndy1,did not upregulate significantly
"Cc1c(C)c2c(c(C)c1O)CCC(C)(C(=O)O)O2 (racemic) [Trolox, (±)-6-Hydroxy-2,5,7,8-tetramethylchromane-2-carboxylic acid]",Ezh2 protein levels,MEFs [1],no effect
OO [H2O2],Ezh2 protein levels,MEFs [1],no effect
"CC(=O)N[C@@H](CS)C(=O)O [NAC, N-Acetyl-L-cysteine]",Ezh2 protein levels,MEFs [1],no effect
"CCN(CC)CCCCNc1ncc2cc(-c3cc(OC)cc(OC)c3)c(NC(=O)NC(C)(C)C)nc2n1 [PD173074, N-[2-[[4-(Diethylamino)butyl]amino]-6-(3,5-dimethoxyphenyl)pyrido[2,3-d]pyrimidin-7-yl]-N′-(1,1-dimethylethyl) urea]",FGF signaling (level of ERK1/2 phosphorylation),WIDR cells; WIDR cells,blocked
same,effect on Ezh2,WIDR cells; [3],abrogated
same,effect on miR-101,WIDR cells; [3],abrogated
same,Ezh2 protein level,"WIDR cells; WIDR cells, 0.5 μM, 24 hours",downregulates
same,Ndy1 protein level,"WIDR cells; WIDR cells, 0.5 μM, 24 hours",downregulates
same,miR-101 levels,"WIDR cells; WIDR cells, 0.5 μM, 24 hours",upregulates
same,FGF signaling (level of ERK1/2 phosphorylation),TCCSUP cells; TCCSUP cells,blocked
same,effect on Ezh2,TCCSUP cells; [4],abrogated
same,effect on miR-101,TCCSUP cells; [4],abrogated
same,Ezh2 protein level,"TCCSUP cells; TCCSUP cells, 0.5 μM, 24 hours",downregulates
same,Ndy1 protein level,"TCCSUP cells; TCCSUP cells, 0.5 μM, 24 hours",downregulates
same,miR-101 levels,"TCCSUP cells; TCCSUP cells, 0.5 μM, 24 hours",upregulates
"IGF-1: growth factor, R&D Systems",level at which Ezh2 expression is induced,MEFs [2],at both the RNA and protein levels
same,Ezh2 expression,MEFs [2],significantly upregulated
PDGF,level at which Ezh2 expression is induced,MEFs [2],at both the RNA and protein levels
same,Ezh2 expression,MEFs [2],significantly upregulated
VEGF,expression of Ndy1,MEFs [2],only moderate
same,level at which Ezh2 expression is induced,MEFs [2],primarily at the protein level
same,miR-101,MEFs [2],downregulating
same,Ezh2 expression,MEFs [2],significantly upregulated
